The target in the first test is human VPS34 (Homo sapiens (Human), UniProt Q8NEB9). In words: Human VPS34 enzyme assay (Adapta TR-FRET ADP detection).
human VPS34, sequence (Q8NEB9 whole entry): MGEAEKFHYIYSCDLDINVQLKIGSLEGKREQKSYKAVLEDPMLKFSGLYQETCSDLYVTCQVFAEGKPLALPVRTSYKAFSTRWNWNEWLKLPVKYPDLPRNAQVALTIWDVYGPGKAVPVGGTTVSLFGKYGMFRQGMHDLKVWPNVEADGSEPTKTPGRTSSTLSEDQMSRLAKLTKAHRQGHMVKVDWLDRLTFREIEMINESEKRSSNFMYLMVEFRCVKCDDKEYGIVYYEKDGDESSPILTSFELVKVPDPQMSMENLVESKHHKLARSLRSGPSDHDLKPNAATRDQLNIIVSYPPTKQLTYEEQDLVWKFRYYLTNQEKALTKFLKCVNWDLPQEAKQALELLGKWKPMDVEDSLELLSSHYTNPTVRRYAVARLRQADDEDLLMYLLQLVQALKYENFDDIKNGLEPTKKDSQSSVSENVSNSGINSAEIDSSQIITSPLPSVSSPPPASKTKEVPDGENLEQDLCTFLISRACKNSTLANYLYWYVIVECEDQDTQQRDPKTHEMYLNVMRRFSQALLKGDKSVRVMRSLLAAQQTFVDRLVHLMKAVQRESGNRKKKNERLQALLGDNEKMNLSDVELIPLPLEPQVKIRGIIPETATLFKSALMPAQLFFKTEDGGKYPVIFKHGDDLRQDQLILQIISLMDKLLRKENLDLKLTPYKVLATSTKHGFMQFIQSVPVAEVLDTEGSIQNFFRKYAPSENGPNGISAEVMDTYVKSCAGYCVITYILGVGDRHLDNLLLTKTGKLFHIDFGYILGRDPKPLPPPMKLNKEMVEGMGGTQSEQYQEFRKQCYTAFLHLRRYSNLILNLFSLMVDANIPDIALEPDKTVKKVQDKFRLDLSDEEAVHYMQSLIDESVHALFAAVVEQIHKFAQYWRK
Conditions: not given
Also noted: Percent Inhibition: dose or concentration left out as unconfirmed. Type of test: biochemical.
As for `Cc1nc(Nc2cc(-c3cnc(Cl)c(NS(=O)(=O)c4ccc(F)cc4F)c3C)ccn2)ccc1C#N` [Compound I-238, N-[6-chloro-2′-[(5-cyano-6-methylpyridin-2-yl)amino]-4-methyl-3,4′-bipyridin-5-yl]-2,4-difluorobenzenesulfonamide], the “Percent Inhibition” value was 93%.

The same test, now with this note: IC50 range class.
On to `Cc1ncc(-c2ccnc(NC(=O)C3CC3(F)F)c2)cc1NS(=O)(=O)N(C)C` (stereo not drawn) [Compound I-244, N-{5-[(dimethylsulfamoyl)amino]-6-methyl-3,4′-bipyridin-2′-yl}-2,2-difluorocyclopropanecarboxamide], for which the IC50 lay in the range of 10 to 50 nM.

Turning to `CC(=O)Nc1cc(-c2cnc(N)c(S(=O)(=O)N(C)C)c2)ccn1` [Compound I-119, N-[6-amino-5-(dimethylsulfamoyl)-3,4′-bipyridin-2′-yl]acetamide], the IC50 is less than 10 nM.

`CC(=O)Nc1cc(-c2cnc(N)c(C(=O)Nc3cccc(F)c3F)c2)ccn1` [Compound I-179, 2′-acetamido-6-amino-N-(2,3-difluorophenyl)-3,4′-bipyridine-5-carboxamide]: the IC50 was less than 10 nM.

`Cc1nccc(Nc2cc(-c3cnc(Cl)c(NS(=O)(=O)N(C)C)c3C)ccn2)n1` [Compound I-381, N′-{6-chloro-4-methyl-2′-[(2-methylpyrimidin-4-yl)amino]-3,4′-bipyridin-5-yl}-N,N-dimethylsulfuric diamide]: the half-maximal inhibitory concentration (IC50) was less than 10 nM.

`CC(=O)Nc1cc(-c2cnc(N)c(S(=O)(=O)Cc3cccnc3)c2)ccn1` [Compound I-205, N-{6-amino-5-[(pyridin-3-ylmethyl)sulfonyl]-3,4′-bipyridin-2′-yl}acetamide] showed a concentration for half-maximal inhibition (IC50) of 10 to 50 nM.

`CC(=O)Nc1cc(-c2cnc(Cl)c(N3CCCNS3(=O)=O)c2C)ccn1` [Compound I-473, N-[6-chloro-5-(1,1-dioxido-1,2,6-thiadiazinan-2-yl)-4-methyl-3,4′-bipyridin-2′-yl]acetamide] returned a concentration for half-maximal inhibition (IC50) of 10 to 50 nM.

For the compound `CC(=O)Nc1cc(-c2cncc(S(=O)(=O)N3CC(F)(F)C3)c2)ccn1` [Compound I-391, N-{5-[(3,3-difluoroazetidin-1-yl)sulfonyl]-3,4′-bipyridin-2′-yl}acetamide], the IC50 was 10 to 50 nM.

In turn, `CC(=O)Nc1cc(-c2cnc(C)c(N3CCCN(C)S3(=O)=O)c2)ccn1` [Compound I-343] displayed an IC50 of 10 to 50 nM.

Take `CC(=O)Nc1cc(-c2cnc(C)c(NS(=O)(=O)c3ccc(C)cc3F)c2)c(C)cn1` [Compound I-130, N-(5-{[(2-fluoro-4-methylphenyl)sulfonyl]amino}-5′,6-dimethyl-3,4′-bipyridin-2′-yl)acetamide]: the IC50 lay in the range of 50 to 100 nM.

For the compound `Cc1ccc(Oc2cc(-c3ccnc(Nc4ccnc(C)n4)c3)cnc2C)nc1` [Compound I-390, 6-methyl-5-[(5-methylpyridin-2-yl)oxy]-N-(2-methylpyrimidin-4-yl)-3,4′-bipyridin-2′-amine], the IC50 lay within 10 to 50 nM.

Consider `CC(=O)Nc1cc(-c2cnc3c(c2)S(=O)(=O)N(C24CC(C2)C4)CCO3)ccn1` [Compound I-376, N-{4-[2-(bicyclo[1.1.1]pent-1-yl)-1,1-dioxido-3,4-dihydro-2H-pyrido[2,3-b][1,4,5]oxathiazepin-8-yl]pyridin-2-yl}acetamide], for which the half-inhibitory concentration (IC50) lay within 10 to 50 nM.

With `CC(=O)Nc1cc(-c2cncc(NS(=O)(=O)c3ccc(F)cc3F)c2C)ccn1` [Compound I-102, N-(5-{[(2,4-difluorophenyl)sulfonyl]amino]-4-methyl-3,4′-bipyridin-2′-yl)acetamide], the IC50 is 10 to 50 nM.

As to `Cc1ncc(-c2ccnc(Nc3cnccn3)c2)cc1NS(=O)(=O)c1ccc(F)cc1F` [Compound I-310, 2,4-difluoro-N-[6-methyl-2′-(pyrazin-2-ylamino)-3,4′-bipyridin-5-yl]benzenesulfonamide], the IC50 is less than 10 nM.

Turning to `Cc1nccc(Nc2cc(-c3cnc(Cl)c(C(=O)O)c3C)ccn2)n1` [Compound I-402, 6-chloro-4-methyl-2′-[(2-methylpyrimidin-4-yl)amino]-3,4′-bipyridine-5-carboxylic acid], the half-inhibitory concentration (IC50) was in the range of 10 to 50 nM.

For the compound `Cc1nccc(Nc2cc(-c3cnc(C)c(C(=O)N4CC(F)(F)C4)c3)ccn2)n1` [Compound I-221, (3,3-difluoroazetidin-1-yl){6-methyl-2′-[(2-methylpyrimidin-4-yl)amino]-3,4′-bipyridin-5-yl]methanone], the 50% inhibitory concentration (IC50) lay in the range of 10 to 50 nM.

For the compound `COC(=O)Nc1cc(-c2cncc(C(=O)C3CC3)c2)ccn1` [Compound I-180], the IC50 lay in the range of 50 to 100 nM.

Take `CC(=O)Nc1cc(-c2cnc(C)c(NS(=O)(=O)c3cc(C(F)(F)F)ccc3F)c2)ccn1` [Compound I-143, N-[5-({[2-fluoro-5-(trifluoromethyl)phenyl]sulfonyl}amino)-6-methyl-3,4′-bipyridin-2′-yl]acetamide]: the 50% inhibitory concentration (IC50) is less than 10 nM.

Take `CC(=O)Nc1cc(-c2cncc(N)c2)ccn1` [Compound I-139, N-(5-amino-3,4′-bipyridin-2′-yl)acetamide]: the half-maximal inhibitory concentration (IC50) was more than 100 nM.

Compound `CC(=O)Nc1cc(-c2cnc3[nH]ncc3c2)c(C)cn1` [Compound I-209, N-[5-methyl-4-(1H-pyrazolo[3,4-b]pyridin-5-yl)pyridin-2-yl]acetamide] yielded an IC50 of more than 100 nM.

In the case of `COc1ncc(-c2ccnc(NC(C)=O)c2)c(C)c1NS(=O)(=O)N(C)C` [Compound I-268, N-{5-[(dimethylsulfamoyl)amino]-6-methoxy-4-methyl-3,4′-bipyridin-2′-yl}acetamide], the IC50 is more than 100 nM.

As to `CC(=O)Nc1cc(-c2cnc(Cl)c(S(=O)(=O)NC(C)(C)C)c2C)ccn1` [Compound I-410, N-[5-(tert-butylsulfamoyl)-6-chloro-4-methyl-3,4′-bipyridin-2′-yl]acetamide], the IC50 lay in the range of 10 to 50 nM.

Take `CC(=O)Nc1cc(-c2cnc3c(c2)N(CC2CC2)S(=O)(=O)N3)ccn1` [Compound I-29, N-{4-[1-(cyclopropylmethyl)-2,2-dioxido-1,3-dihydro[1,2,5]thiadiazolo[3,4-b]pyridin-6-yl]pyridin-2-yl}acetamide]: the IC50 is 10 to 50 nM.

As to `CC(=O)Nc1cc(-c2cnc(C)c(NS(=O)(=O)c3ccsc3)c2)ccn1` [Compound I-203, N-{6-methyl-5-[(3-thienylsulfonyl)amino]-3,4′-bipyridin-2′-yl}acetamide], the IC50 was less than 10 nM.

Take `CC(=O)Nc1cc(-c2cnc(C)c(N3CC(N(C)C)CS3(=O)=O)c2)ccn1` (single isomer, unassigned) [Compound I-496, N-(5-(4-(dimethylamino)-1,1-dioxidoisothiazolidin-2-yl)-6-methyl-[3,4′-bipyridin]-2′-yl)acetamide]: the IC50 lay within 10 to 50 nM.

The compound `Cc1nccc(Nc2cc(-c3cnc(C)c(C(=O)N(C)C)c3)ccn2)n1` [Compound I-266, N,N,6-trimethyl-2′-[(2-methylpyrimidin-4-yl)amino]-3,4′-bipyridine-5-carboxamide] gave a 50% inhibitory concentration (IC50) of 10 to 50 nM.

As to `Cc1cnc(NC(=O)C2CC2)cc1-c1cnc(Cl)c(NS(=O)(=O)c2ccc(F)cc2F)c1C` [Compound I-430, N-(6-chloro-5-{[(2,4-difluorophenyl)sulfonyl]amino}-4,5′-dimethyl-3,4′-bipyridin-2′-yl)cyclopropanecarboxamide], the IC50 was in the range of 10 to 50 nM.

`CC(=O)Nc1cc(-c2cnc(C)c(C(=O)N(C)C)c2)ccn1` [Compound I-75, 2′-acetamido-N,N,6-trimethyl-3,4′-bipyridin-5-carboxamide]: the IC50 lay in the range of 50 to 100 nM.

Consider `Cc1ncc(-c2ccnc(Nc3ccnc(C4CC4)n3)c2)cc1NC(=O)N1CC(F)(F)C1` [Compound I-368, N-(2′-((2-cyclopropylpyrimidin-4-yl)amino)-6-methyl-[3,4′-bipyridin]-5-yl)-3,3-difluoroazetidine-1-carboxamide], for which the IC50 lay in the range of 10 to 50 nM.

Compound `CCCCN(CCCC)S(=O)(=O)Nc1cc(-c2ccnc(NC(C)=O)c2)cnc1C` [Compound I-350, N-{5-[(dibutylsulfamoyl)amino]-6-methyl-3,4′-bipyridin-2′-yl}acetamide] displayed a concentration for half-maximal inhibition (IC50) of less than 10 nM.

With `Cc1nccc(Nc2cc(-c3cnc(Cl)c(NC(=O)c4ccc(F)cc4F)c3C)ccn2)n1` [Compound I-295, N-{6-chloro-4-methyl-2′-[(2-methylpyrimidin-4-yl)amino]-3,4′-bipyridin-5-yl}-2,4-difluorobenzamide], the IC50 was 50 to 100 nM.

For the compound `COc1cc(F)c(S(=O)(=O)Nc2cc(-c3ccnc(NC(C)=O)c3)cnc2C)cc1F` [Compound I-159, N-(5-{[(2,5-difluoro-4-methoxyphenyl)sulfonyl]amino}-6-methyl-3,4′-bipyridin-2′-yl)acetamide], the IC50 is less than 10 nM.

`Cc1nc(Nc2cc(-c3cnc(Cl)c(NS(=O)(=O)c4ccc(F)cc4F)c3C)ccn2)ccc1C#N` [Compound I-238, N-[6-chloro-2′-[(5-cyano-6-methylpyridin-2-yl)amino]-4-methyl-3,4′-bipyridin-5-yl]-2,4-difluorobenzenesulfonamide] gave an IC50 of less than 10 nM.

In the case of `CC(=O)Nc1cc(-c2cnc(C)c(NC(=O)c3ccc(F)cc3F)c2)ccn1` [Compound I-115, N-(2′-acetamido-6-methyl-3,4′-bipyridin-5-yl)-2,4-difluorobenzamide], the IC50 is more than 100 nM.

Regarding `CC(=O)Nc1cc(-c2cnc3c(c2)NS(=O)(=O)N3CC2CC2)ccn1` [Compound I-68, N-{4-[3-(cyclopropylmethyl)-2,2-dioxido-1,3-dihydro[1,2,5]thiadiazolo[3,4-b]pyridin-6-yl)pyridin-2-yl}acetamide], the IC50 was more than 100 nM.

As to `CC(=O)Nc1cc(-c2cnc(N)c(N3CCCC3=O)c2)ccn1` [Compound I-337, N-[6-amino-5-(2-oxopyrrolidin-1-yl)-3,4′-bipyridin-2′-yl]acetamide], the half-inhibitory concentration (IC50) was more than 100 nM.

`CC(=O)Nc1cc(-c2cncc(S(=O)(=O)Nc3ccccc3)c2)ccn1` [Compound I-459, N-[5-(phenylsulfamoyl)-3,4′-bipyridin-2′-yl]acetamide] yielded a half-maximal inhibitory concentration (IC50) of 10 to 50 nM.

In turn, `CCN(CC)S(=O)(=O)c1cncc(-c2ccnc(NC(C)=O)c2)c1` [Compound I-120, N-[5-(diethylsulfamoyl)-3,4′-bipyridin-2′-yl]acetamide] displayed an IC50 of less than 10 nM.

`CC(=O)Nc1cc(-c2cnc(C)c(NS(=O)(=O)c3ccc(F)c(F)c3)c2)ccn1` [Compound I-59, N-(5-{[(3,4-difluorophenyl)sulfonyl]amino}-6-methyl-3,4′-bipyridin-2′-yl)acetamide] came in with a concentration for half-maximal inhibition (IC50) of less than 10 nM.

Usually IC50 stands for the concentration that inhibits the measured activity by half.

Values taken from US9751854B2 (Millennium Pharmaceuticals, Inc., priority 2014, dated 2017).
